This is an account of results in ChEMBL document CHEMBL3870304 (Eur J Med Chem, 2016).

A short description of assay [1]: cells. The note with it: Homo sapiens, KARPAS-299, 72 h.
Description: Cytotoxicity against human KARPAS299 cells harboring NPM-ALK assessed as reduction in cell proliferation after 72 hrs by MTT assay
A short description of assay [2]: cells. The note with it: Homo sapiens, HT-29, 72 h.
Description: Cytotoxicity against human HT-29 cells assessed as reduction in cell proliferation after 72 hrs by MTT assay
Assay [3] has as its target Hepatocyte growth factor receptor (Homo sapiens, UniProt P08581).
Description: Inhibition of c-Met (unknown origin) using peptide as substrate after 60 mins by HTRF assay
Assay [4] in a line: cells. The following applies: Homo sapiens, HCC78, 72 h.
Description: Cytotoxicity against human HCC78 cells harboring SLC34A2-ROS1 assessed as reduction in cell proliferation after 72 hrs by MTT assay
Assay [5] is described as follows: cells. The note with it: Homo sapiens, NCI-H460, 72 h.
Description: Cytotoxicity against human NCI-H460 cells assessed as reduction in cell proliferation after 72 hrs by MTT assay
The target of assay [6] is Epidermal growth factor receptor (Homo sapiens, UniProt P00533).
Chain of Epidermal growth factor receptor (P00533 whole entry): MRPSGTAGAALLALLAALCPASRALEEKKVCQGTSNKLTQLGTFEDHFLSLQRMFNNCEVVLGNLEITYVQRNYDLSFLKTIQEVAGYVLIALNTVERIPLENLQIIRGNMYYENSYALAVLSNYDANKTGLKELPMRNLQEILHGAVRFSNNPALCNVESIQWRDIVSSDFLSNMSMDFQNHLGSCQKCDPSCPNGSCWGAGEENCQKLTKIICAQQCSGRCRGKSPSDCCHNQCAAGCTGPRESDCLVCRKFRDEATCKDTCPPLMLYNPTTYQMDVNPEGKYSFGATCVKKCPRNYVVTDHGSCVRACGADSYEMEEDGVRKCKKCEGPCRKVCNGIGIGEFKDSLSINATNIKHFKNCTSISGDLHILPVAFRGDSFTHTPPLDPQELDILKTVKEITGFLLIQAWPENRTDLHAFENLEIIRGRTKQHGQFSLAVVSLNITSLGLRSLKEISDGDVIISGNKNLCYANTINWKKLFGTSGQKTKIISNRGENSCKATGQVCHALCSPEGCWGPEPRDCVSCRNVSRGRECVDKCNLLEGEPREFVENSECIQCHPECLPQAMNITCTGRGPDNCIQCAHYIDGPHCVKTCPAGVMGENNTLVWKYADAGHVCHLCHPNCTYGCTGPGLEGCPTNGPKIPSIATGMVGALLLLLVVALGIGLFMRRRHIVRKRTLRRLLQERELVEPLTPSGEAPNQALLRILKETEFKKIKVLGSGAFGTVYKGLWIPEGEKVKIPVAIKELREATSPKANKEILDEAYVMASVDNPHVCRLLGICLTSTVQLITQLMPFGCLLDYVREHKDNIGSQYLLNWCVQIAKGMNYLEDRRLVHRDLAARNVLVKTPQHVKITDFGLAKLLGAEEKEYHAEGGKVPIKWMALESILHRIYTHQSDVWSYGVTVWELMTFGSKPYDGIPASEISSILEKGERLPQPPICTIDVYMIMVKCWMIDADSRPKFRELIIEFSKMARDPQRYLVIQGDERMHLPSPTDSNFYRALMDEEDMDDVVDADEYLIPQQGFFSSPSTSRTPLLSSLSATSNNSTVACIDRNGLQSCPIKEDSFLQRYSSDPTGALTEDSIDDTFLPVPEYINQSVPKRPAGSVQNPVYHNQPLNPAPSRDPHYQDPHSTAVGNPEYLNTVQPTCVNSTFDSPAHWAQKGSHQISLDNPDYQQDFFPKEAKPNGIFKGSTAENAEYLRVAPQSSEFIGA
Description: Inhibition of EGFR (unknown origin) using peptide as substrate after 60 mins by HTRF assay
For assay [7], the system named is HCC78. As to the kind of experiment: Potency index, ratio of crizotinib IC50 to compound IC50 against human HCC78 cells harboring SLC34A2-ROS1. The class given is functional.
Assay [8] addresses T1, ALK tyrosine kinase receptor (Homo sapiens, UniProt Q9UM73).
Target sequence in this assay (Q9UM73 whole entry): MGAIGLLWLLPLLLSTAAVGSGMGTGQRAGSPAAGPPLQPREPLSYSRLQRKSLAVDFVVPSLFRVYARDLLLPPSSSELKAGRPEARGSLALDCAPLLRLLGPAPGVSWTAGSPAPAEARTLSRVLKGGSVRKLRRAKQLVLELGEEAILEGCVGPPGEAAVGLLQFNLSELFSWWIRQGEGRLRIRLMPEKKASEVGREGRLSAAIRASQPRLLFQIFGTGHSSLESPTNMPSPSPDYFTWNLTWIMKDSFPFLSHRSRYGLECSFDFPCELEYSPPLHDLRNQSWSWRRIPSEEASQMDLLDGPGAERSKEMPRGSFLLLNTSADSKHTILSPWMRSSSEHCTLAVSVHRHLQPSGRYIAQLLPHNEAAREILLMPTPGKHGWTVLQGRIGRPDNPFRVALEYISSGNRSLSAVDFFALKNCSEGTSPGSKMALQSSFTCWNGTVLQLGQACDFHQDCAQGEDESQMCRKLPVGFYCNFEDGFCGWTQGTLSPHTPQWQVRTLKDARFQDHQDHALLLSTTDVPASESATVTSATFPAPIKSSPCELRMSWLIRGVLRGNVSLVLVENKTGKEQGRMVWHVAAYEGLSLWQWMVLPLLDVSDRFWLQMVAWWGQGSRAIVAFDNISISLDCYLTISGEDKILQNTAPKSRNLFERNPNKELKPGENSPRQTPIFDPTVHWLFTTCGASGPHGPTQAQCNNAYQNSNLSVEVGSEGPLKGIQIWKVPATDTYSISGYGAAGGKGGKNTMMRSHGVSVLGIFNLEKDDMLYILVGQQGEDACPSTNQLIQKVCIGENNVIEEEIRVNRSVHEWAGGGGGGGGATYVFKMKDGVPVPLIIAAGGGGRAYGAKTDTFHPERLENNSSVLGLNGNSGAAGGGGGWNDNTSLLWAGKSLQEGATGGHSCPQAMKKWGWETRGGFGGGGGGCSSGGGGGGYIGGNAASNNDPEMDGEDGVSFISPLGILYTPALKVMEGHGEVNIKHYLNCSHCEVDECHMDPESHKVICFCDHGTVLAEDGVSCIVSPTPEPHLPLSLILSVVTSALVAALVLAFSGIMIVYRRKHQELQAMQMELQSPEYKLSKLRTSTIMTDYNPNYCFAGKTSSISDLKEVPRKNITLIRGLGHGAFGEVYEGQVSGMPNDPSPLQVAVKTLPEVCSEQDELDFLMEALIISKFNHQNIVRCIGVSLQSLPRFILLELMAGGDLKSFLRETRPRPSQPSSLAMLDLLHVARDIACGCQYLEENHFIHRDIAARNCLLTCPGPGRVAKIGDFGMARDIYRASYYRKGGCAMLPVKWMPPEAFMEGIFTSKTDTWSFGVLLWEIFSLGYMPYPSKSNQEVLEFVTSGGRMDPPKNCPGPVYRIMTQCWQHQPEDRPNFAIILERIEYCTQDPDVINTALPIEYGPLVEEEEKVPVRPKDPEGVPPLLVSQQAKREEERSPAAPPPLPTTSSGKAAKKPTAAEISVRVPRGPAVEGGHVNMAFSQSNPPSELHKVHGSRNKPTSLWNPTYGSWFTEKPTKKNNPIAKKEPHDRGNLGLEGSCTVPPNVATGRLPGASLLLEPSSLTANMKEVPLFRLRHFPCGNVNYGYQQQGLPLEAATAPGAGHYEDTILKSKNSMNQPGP
Description: Inhibition of ALK (unknown origin) using peptide as substrate after 60 mins by HTRF assay
In assay [9] the test system is ALK tyrosine kinase receptor (Homo sapiens), Q9UM73 [L1196M]. As to the kind of experiment: Potency index, ratio of crizotinib IC50 to compound IC50 for ALK L1196M mutant (unknown origin).
Chain of ALK tyrosine kinase receptor (Homo sapiens), Q9UM73 [L1196M] (Q9UM73 whole entry L1196M, looked up): as the sequence (Q9UM73 whole entry) above, with L1196M counted along it
Assay [10] has as its target T1, ALK tyrosine kinase receptor. As to the kind of experiment: Potency index, ratio of crizotinib IC50 to compound IC50 for ALK (unknown origin).
In assay [11] the target is Proto-oncogene tyrosine-protein kinase ROS (Homo sapiens, UniProt P08922).
Description: Inhibition of ROS1 (unknown origin) using peptide as substrate after 60 mins by HTRF assay
The subject of assay [12] is KARPAS-299. As to the kind of experiment: Potency index, ratio of crizotinib IC50 to compound IC50 against human KARPAS299 cells harboring NPM-ALK. Format: functional.
The target in assay [13] is ALK tyrosine kinase receptor (Homo sapiens, UniProt Q9UM73, L1196M).
The nature of assay [14]: cells. The following applies: Homo sapiens, A549, 72 h.
Description: Cytotoxicity against human A549 cells assessed as reduction in cell proliferation after 72 hrs by MTT assay

Where only a bound is given, the exact number is not on record here.

The IC50 is the midpoint of a concentration-inhibition curve. A low value points to inhibition by little substance.

Chain of Hepatocyte growth factor receptor (P08581 whole entry): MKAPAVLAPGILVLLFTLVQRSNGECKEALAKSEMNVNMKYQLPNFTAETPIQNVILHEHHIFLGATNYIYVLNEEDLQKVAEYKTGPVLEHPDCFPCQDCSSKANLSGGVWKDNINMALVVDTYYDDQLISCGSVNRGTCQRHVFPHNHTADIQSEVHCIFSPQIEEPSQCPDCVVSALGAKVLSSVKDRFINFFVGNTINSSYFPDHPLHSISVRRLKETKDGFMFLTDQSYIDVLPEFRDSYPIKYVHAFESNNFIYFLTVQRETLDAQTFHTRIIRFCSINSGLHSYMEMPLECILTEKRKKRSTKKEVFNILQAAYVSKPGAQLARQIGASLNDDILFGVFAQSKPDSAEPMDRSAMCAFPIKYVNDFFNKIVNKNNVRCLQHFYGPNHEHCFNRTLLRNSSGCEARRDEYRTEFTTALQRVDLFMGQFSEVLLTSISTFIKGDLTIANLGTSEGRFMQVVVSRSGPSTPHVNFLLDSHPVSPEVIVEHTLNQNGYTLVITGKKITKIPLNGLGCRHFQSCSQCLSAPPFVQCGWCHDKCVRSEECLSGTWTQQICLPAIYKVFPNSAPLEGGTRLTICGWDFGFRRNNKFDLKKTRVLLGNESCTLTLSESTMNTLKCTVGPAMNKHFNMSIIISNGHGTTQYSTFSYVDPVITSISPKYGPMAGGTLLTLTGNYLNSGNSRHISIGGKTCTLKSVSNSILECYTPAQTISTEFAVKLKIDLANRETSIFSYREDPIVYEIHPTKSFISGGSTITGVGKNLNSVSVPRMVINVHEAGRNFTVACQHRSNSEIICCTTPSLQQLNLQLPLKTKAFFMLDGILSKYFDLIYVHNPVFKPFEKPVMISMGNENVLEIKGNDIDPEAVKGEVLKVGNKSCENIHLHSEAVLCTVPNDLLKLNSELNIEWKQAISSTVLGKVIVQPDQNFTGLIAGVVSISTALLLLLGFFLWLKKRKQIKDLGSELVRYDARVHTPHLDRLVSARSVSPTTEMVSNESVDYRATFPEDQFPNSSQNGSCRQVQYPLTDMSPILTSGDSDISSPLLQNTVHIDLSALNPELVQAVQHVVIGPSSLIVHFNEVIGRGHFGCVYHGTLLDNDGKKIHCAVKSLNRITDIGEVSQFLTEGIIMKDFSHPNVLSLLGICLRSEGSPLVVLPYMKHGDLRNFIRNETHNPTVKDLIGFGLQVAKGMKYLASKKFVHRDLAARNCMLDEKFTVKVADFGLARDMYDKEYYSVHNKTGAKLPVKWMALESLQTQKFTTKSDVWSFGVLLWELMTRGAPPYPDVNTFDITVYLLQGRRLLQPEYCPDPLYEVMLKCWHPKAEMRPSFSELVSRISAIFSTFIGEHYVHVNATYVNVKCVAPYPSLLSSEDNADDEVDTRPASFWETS

Consider `C/C(=N\Nc1ncc(Cl)c(Nc2ccccc2S(=O)(=O)C(C)C)n1)c1ccc(F)cc1`, for which the half-maximal inhibitory concentration (IC50) is 20 nM in assay [1]; more than 10000 nM in [2]; more than 1000 nM in assay [3]; 28 nM in assay [4]; more than 10000 nM in assay [5]; more than 1000 nM in [6]. In addition, the IC50 in assay [8] is 2.5 nM; in assay [11], 2.7 nM; in assay [13], 67 nM; in assay [14], more than 10000 nM. Also, the “Ratio IC50” value is 11.1 in [7], 20 in assay [9], 9 in assay [10] and 2.4 in [12].

As for `CC(C)S(=O)(=O)c1ccccc1Nc1nc(N/N=C/c2ccc(OC(F)(F)F)cc2)ncc1Cl`, the IC50 in [1] was determined as 30 nM; in assay [2] it was 1930 nM; in [3] it was 393 nM; in assay [4], 31 nM; in assay [5], 1200 nM; in assay [6] it was 898 nM. The IC50 was found to be 5.5 nM in [8], 5.5 nM in assay [11], 79 nM in assay [13] and 980 nM in [14]. Also, the Ratio IC50 in assay [9] turned out to be 20.

Regarding `CC(C)S(=O)(=O)c1ccccc1Nc1nc(N/N=C/c2ccc(F)cc2)ncc1Cl`, the IC50 in [1] amounted to 16 nM; in assay [2] it was 1760 nM; in assay [3], 220 nM; in assay [4], 19 nM; in assay [5], 1300 nM; in [6] it was 570 nM. For the same molecule, the concentration for half-maximal inhibition (IC50) in assay [8] is 2.3 nM; in assay [11] it was 1.8 nM; in [13], 45 nM; in assay [14], 1400 nM. In addition, the values for the Ratio IC50 in [9] and in assay [10] were 20 and 9, respectively.
